Results published in PubChem BioAssay AID330 (DTP/NCI, 2004).
“And” between values parts separate entries of the source, which are not always exact repeats. Equal entries are not always repeated. Toxic doses and inconclusive results are not listed.

System: P388 leukemia ip, CD2F1 mice, survival T/C
Assay: NCI In Vivo Anticancer Drug Screen. Data for tumor model P388 Leukemia (intraperitoneal) in CD2F1 (CDF1) mice
Conditions: endpoint: median survival time, higher = longer survival
Procedure, shortened: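 Mice carrying the transplanted tumor received test compound or vehicle. Survival was recorded in each group, and the value is the treated-group measurement divided by that of the vehicle-treated control group.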

[1] = dose: 12.5 mg/kg/injection, schedule: Q04DX002 (ip), vehicle: saline with Tween-80
[2] = dose: 50.0 mg/kg/injection, schedule: Q01DX005 (ip), vehicle: Klucel (hydroxypropylcellulose) (HPC)
[3] = dose: 100.0 mg/kg/injection, schedule: Q01DX005 (ip), vehicle: Klucel (hydroxypropylcellulose) (HPC)
[4] = dose: 200.0 mg/kg/injection, schedule: Q01DX005 (ip), vehicle: Klucel (hydroxypropylcellulose) (HPC)
[5] = dose: 25.0 mg/kg/injection, schedule: Q01DX009 (ip), vehicle: saline
[6] = dose: 50.0 mg/kg/injection, schedule: Q01DX009 (ip), vehicle: saline
[7] = dose: 100.0 mg/kg/injection, schedule: Q01DX009 (ip), vehicle: saline
[8] = dose: 200.0 mg/kg/injection, schedule: Q01DX009 (ip), vehicle: saline
[9] = dose: 100.0 mg/kg/injection, schedule: Q01DX009 (ip), vehicle: saline with Tween-80
[10] = dose: 200.0 mg/kg/injection, schedule: Q01DX009 (ip), vehicle: saline with Tween-80

CC([NH-])CC(C)[NH-].[Br][Pt+2][Br] (centres undefined)
T/C (dose: 6.25 mg/kg/injection, schedule: Q04DX002 (ip), vehicle: saline with Tween-80): 154 % of control and 171 % of control and 159 % of control
T/C [1]: 188 % of control and 183 % of control and 186 % of control

Cc1nc2ccccc2c(N)c1-c1cc(C)c2c(C)nc3ccccc3c2n1
T/C (dose: 25.0 mg/kg/injection, schedule: Q01DX005 (ip), vehicle: Klucel (hydroxypropylcellulose) (HPC)): 88 % of control
T/C [2]: 87 % of control
T/C [3]: 90 % of control
T/C [4]: 88 % of control

O=C(O)CCCCCCCCCO
T/C [5]: 109 % of control
T/C [6]: 115 % of control
T/C [7]: 100 % of control
T/C [8]: 100 % of control

CCOC(=O)/C(=C(\C)N)C1CC(=O)NC1=O (centres undefined)
T/C [5]: 104 % of control
T/C [6]: 104 % of control
T/C [7]: 101 % of control
T/C [8]: 107 % of control

BrN=C1C=CC(=NBr)C=C1
T/C (dose: 50.0 mg/kg/injection, schedule: Q01DX005 (ip), vehicle: saline with Tween-80): 100 % of control (2×) and 106 % of control
T/C (dose: 100.0 mg/kg/injection, schedule: Q01DX005 (ip), vehicle: saline with Tween-80): 101 % of control and 106 % of control and 91 % of control
T/C (dose: 200.0 mg/kg/injection, schedule: Q01DX005 (ip), vehicle: saline with Tween-80): 101 % of control and 106 % of control and 120 % of control
T/C (dose: 400.0 mg/kg/injection, schedule: Q01DX005 (ip), vehicle: saline with Tween-80): 89 % of control and 90 % of control

O=C1c2cc3c(-c4ccccc4)sc(-c4ccccc4)c3cc2C(=O)c2c(O)ccc(O)c21
T/C [1]: 90 % of control
T/C (dose: 25.0 mg/kg/injection, schedule: Q04DX002 (ip), vehicle: saline with Tween-80): 91 % of control
T/C (dose: 50.0 mg/kg/injection, schedule: Q04DX002 (ip), vehicle: saline with Tween-80): 98 % of control and 88 % of control

CC(=O)Nc1nc(C)c([N+](=O)[O-])s1
T/C (dose: 50.0 mg/kg/injection, schedule: Q01DX009 (ip), vehicle: saline with Tween-80): 105 % of control
T/C [9]: 93 % of control
T/C [10]: 100 % of control

COc1cccc2c1C(=O)c1c(O)c3c(c(O)c1C2=O)C[C@@](O)(/C=N\O)C[C@@H]3OC1CC(N)C(O)C(C)O1 (some centres undefined)
T/C (dose: 3.13 mg/kg/injection, schedule: Q04DX003 (ip), vehicle: water): 109 % of control
T/C (dose: 6.25 mg/kg/injection, schedule: Q04DX003 (ip), vehicle: water): 118 % of control
T/C (dose: 12.5 mg/kg/injection, schedule: Q04DX003 (ip), vehicle: water): 116 % of control
T/C (dose: 25.0 mg/kg/injection, schedule: Q04DX003 (ip), vehicle: water): 111 % of control
T/C (dose: 50.0 mg/kg/injection, schedule: Q04DX003 (ip), vehicle: water): 163 % of control

Cc1cc(C)cc(NCCC#N)c1
T/C (dose: 100.0 mg/kg/injection, schedule: Q04DX003 (ip), vehicle: other): 109 % of control
T/C (dose: 200.0 mg/kg/injection, schedule: Q04DX003 (ip), vehicle: other): 109 % of control

COc1cc([N+](=O)[O-])c(S(=O)(=O)O)cc1N=N/C=N/Nc1cc(S(=O)(=O)O)c([N+](=O)[O-])cc1OC
T/C [2]: 118 % of control
T/C [3]: 110 % of control
T/C [4]: 108 % of control

COc1ccc(NC(=O)Nc2ccc(NC(C)=O)cc2)c(OC)c1
T/C (dose: 15.0 mg/kg/injection, schedule: Q01DX005 (ip), vehicle: saline with Tween-80): 93 % of control
T/C (dose: 30.0 mg/kg/injection, schedule: Q01DX005 (ip), vehicle: saline with Tween-80): 92 % of control
T/C (dose: 60.0 mg/kg/injection, schedule: Q01DX005 (ip), vehicle: saline with Tween-80): 86 % of control
T/C (dose: 240.0 mg/kg/injection, schedule: Q01DX005 (ip), vehicle: saline with Tween-80): 88 % of control

CC(C)C(C(O)c1ccccc1)[N+](=O)[O-] (centres undefined)
T/C [9]: 104 % of control
T/C [10]: 95 % of control
T/C (dose: 400.0 mg/kg/injection, schedule: Q01DX009 (ip), vehicle: saline with Tween-80): 86 % of control

COc1cc(/C=C\C=O)cc(OC)c1OC
T/C (dose: 100.0 mg/kg/injection, schedule: Q04DX002 (ip), vehicle: saline with Tween-80): 99 % of control
T/C (dose: 200.0 mg/kg/injection, schedule: Q04DX002 (ip), vehicle: saline with Tween-80): 110 % of control
T/C (dose: 400.0 mg/kg/injection, schedule: Q04DX002 (ip), vehicle: saline with Tween-80): 108 % of control

O=C1NC(=O)C2(OC3c4ccccc4C=NN3C3=C2C(=O)CCC3)C(=O)N1 (centres undefined)
T/C (dose: 60.0 mg/kg/injection, schedule: Q01DX005 (ip), vehicle: Klucel (hydroxypropylcellulose) (HPC)): 98 % of control
T/C (dose: 120.0 mg/kg/injection, schedule: Q01DX005 (ip), vehicle: Klucel (hydroxypropylcellulose) (HPC)): 97 % of control

C1CCN2CSCCCC2C1 (centres undefined)
T/C (dose: 50.0 mg/kg/injection, schedule: Q01DX005 (ip), vehicle: saline): 100 % of control
T/C (dose: 100.0 mg/kg/injection, schedule: Q01DX005 (ip), vehicle: saline): 104 % of control
T/C (dose: 200.0 mg/kg/injection, schedule: Q01DX005 (ip), vehicle: saline): 111 % of control
